Earlier results on three compounds are cited in publication PMC6738313 (The Oncologist, 2019).

The subject of series [1] is patients with metastatic renal cell carcinoma.
Another series deals with CYP3A4/5. As to conditions: clinical data.
In series [2] the test system is first-line poor- or intermediate-risk patients with mRCC. The note with it: CABOSUN.

In the case of `CNC(=O)c1ccccc1Sc1ccc2c(/C=C/c3ccccn3)n[nH]c2c1` [Axitinib], the “Progression-free survival (PFS)” value in series [1] (axitinib single agent, first-line therapy, 95% CI 7.2–12.1) is reported as 10.1 months. Moreover, the “Objective response rate (ORR)” value in series [1] (single-agent axitinib, first-line mRCC, phase III trial versus sorafenib) is listed as 32%. Further, the Metabolic pathway entry in the series on CYP3A4/5 is “primarily metabolized by CYP3A4/5”.
As to `COc1cc2nccc(Oc3ccc(NC(=O)C4(C(=O)Nc5ccc(F)cc5)CC4)cc3)c2cc1OC` [cabozantinib], the “Estimated progression-free survival (PFS)” value in series [2] (95% CI 6.2–8.8) is on record as 8.2 months. Further, in series [2] (first-line poor- or intermediate-risk patients with mRCC), the “Objective response rate (ORR)” value is on record as 46%.
In the case of `C[C@@H](Oc1cc(-c2cnn(C3CCNCC3)c2)cnc1N)c1c(Cl)ccc(F)c1Cl` [crizotinib, Crizotinib], the “CYP3A4/5 inhibition (classification)” value with CYP3A4/5 is reported as “moderate time‐dependent CYP3A4/5 inhibitor”.
